Common to all, as to format: biochemical
Details in all cases: kinase assay by one of methods A, B or C

In one test the target is EGFR (Homo sapiens, UniProt P00533). The test is described as follows: Inhibition of a panel of kinases: EGFR. As to the method: (§1) Btk kinase activity is determined using a time-resolved fluorescence resonance energy transfer (TR-FRET) methodology. Measurements are performed in a reaction volume of 50 μL using 96-well assay plates. Kinase enzyme, inhibitor, ATP (at the Km for the kinase), and 1 μM peptide substrate (Biotin-AVLESEEELYSSARQ-NH2) are incubated in a reaction buffer composed of 20 mM Tris, 50 mM NaCl, MgCl2 (5-25 mM depending on the kinase), MnCl2 (0-10 mM), 1 mM DTT, 0.1 mM EDTA, 0.01% bovine serum albumin, 0.005% Tween-20, and 10% DMSO at pH 7.4 for one hour. The reaction is quenched by the addition of 1.2 equivalents of EDTA (relative to divalent cation) in 25 μL of 1× Lance buffer (Perkin-Elmer). Streptavidin-APC (Perkin-Elmer) and Eu-labeled p-Tyr100 antibody (Perkin-Elmer) in 1× Lance buffer are added in a 25 μL volume to give final concentrations of 100 nM and 2.5 nM, respectively, and the mixture is allowed to incubate for one hour. The TR-FRET signal is measured on a multimode plate reader with an excitation wavelength (λEx) of 330 nm and detection wavelengths (λEm) of 615 and 665 nm. Activity is determined by the ratio of the fluorescence at 665 nm to that at 615 nm. For each compound, enzyme activity is measured at various concentrations of compound. Negative control reactions are performed in the absence of inhibitor in replicates of six, and two no-enzyme controls are used to determine baseline fluorescence levels. Inhibition constants, Ki(app), ware obtained using the program BatchKi (Kuzmic et al. (2000), Anal. Biochem. 286:45-50). IC50s are obtained according to the equation: IC50={Ki(app)/(1+[ATP]/Km^ATP)}+[E]total/2;
(§2) For all kinases, [ATP]=Km^ATP, [Btk]total=0.5 nM and [Lck]total=6 nM.
(§3) Kinase activity is measured in vitro using electrophoretic mobility shift assay. The kinase reactions are assembled in a total volume of 25 μL in 384 well plates. The reactions comprise: BTK enzyme (1 nM, N-terminal His6-tagged, recombinant, full-length, human BTK purified from baculovirus Sf21 insect cell system), inhibitor, ATP ([…] the apparent Km for the kinase), fluorescently labeled peptide substrate (1 μM, FAM-GEEPLYWSFPAKKK-NH2) in a reaction buffer composed of 100 mM HEPES, pH7.5, 5 mM MgCl2 1 mM DTT, 0.1% bovine serum albumin, 0.01% Triton X-100, and 1% DMSO. The reaction is incubated for one hour and is quenched by the addition of 45 μL of termination buffer (100 mM HEPES, pH7.5, 0.01% Triton X-100, 30 mM EDTA). The terminated reactions are analyzed using 12 channel LabChip® 3000 microfluidic detection instrument (Caliper Life Sciences). The enzymatic phosphorylation of the peptide results in a change in net charge, enabling electrophoretic separation of product from substrate peptide. As substrate and product peptides are separated, two peaks of fluorescence are observed. Change in the relative fluorescence intensity of the substrate and product peaks is the parameter measured, reflecting enzyme activity. In the presence of an inhibitor, the ratio between product and substrate is altered: the signal of the product decreases, while the signal of the substrate increases.
(§4) Activity in each sample is determined as the product to sum ratio (PSR):P/(S+P), where P is the peak height of the product peptide and S is the peak height of the substrate peptide. For each compound, enzyme activity is measured at various concentrations (12 concentrations of compound spaced by 3× dilution intervals). Negative control samples (0%-inhibition in the absence of inhibitor) and positive control samples (100%-inhibition, in the presence of 20 mM EDTA) are assembled in replicates of four and are used to calculate %-inhibition values for each inhibitor at each concentration. Percent inhibition (Pinh) is determined using following equation: […]

Another test deals with T1, BTK (Homo sapiens, UniProt Q06187).
T1 construct: purified from insect cells as a full-length construct containing a N-terminal 6×-His tag; His6 (N); made in house; host or cells: insect cells (baculovirus, Sf21)
The test is described as follows: Btk in vitro inhibitory activity / inhibition of a panel of kinases (TR-FRET, mobility shift or radiometric filter binding).

Another test addresses LCK (Homo sapiens, UniProt P06239). Description: Inhibition of a panel of kinases: LCK. As to the method:
as §1, §2, §3, §4

EGFR, sequence (P00533 25-1210, species assumed): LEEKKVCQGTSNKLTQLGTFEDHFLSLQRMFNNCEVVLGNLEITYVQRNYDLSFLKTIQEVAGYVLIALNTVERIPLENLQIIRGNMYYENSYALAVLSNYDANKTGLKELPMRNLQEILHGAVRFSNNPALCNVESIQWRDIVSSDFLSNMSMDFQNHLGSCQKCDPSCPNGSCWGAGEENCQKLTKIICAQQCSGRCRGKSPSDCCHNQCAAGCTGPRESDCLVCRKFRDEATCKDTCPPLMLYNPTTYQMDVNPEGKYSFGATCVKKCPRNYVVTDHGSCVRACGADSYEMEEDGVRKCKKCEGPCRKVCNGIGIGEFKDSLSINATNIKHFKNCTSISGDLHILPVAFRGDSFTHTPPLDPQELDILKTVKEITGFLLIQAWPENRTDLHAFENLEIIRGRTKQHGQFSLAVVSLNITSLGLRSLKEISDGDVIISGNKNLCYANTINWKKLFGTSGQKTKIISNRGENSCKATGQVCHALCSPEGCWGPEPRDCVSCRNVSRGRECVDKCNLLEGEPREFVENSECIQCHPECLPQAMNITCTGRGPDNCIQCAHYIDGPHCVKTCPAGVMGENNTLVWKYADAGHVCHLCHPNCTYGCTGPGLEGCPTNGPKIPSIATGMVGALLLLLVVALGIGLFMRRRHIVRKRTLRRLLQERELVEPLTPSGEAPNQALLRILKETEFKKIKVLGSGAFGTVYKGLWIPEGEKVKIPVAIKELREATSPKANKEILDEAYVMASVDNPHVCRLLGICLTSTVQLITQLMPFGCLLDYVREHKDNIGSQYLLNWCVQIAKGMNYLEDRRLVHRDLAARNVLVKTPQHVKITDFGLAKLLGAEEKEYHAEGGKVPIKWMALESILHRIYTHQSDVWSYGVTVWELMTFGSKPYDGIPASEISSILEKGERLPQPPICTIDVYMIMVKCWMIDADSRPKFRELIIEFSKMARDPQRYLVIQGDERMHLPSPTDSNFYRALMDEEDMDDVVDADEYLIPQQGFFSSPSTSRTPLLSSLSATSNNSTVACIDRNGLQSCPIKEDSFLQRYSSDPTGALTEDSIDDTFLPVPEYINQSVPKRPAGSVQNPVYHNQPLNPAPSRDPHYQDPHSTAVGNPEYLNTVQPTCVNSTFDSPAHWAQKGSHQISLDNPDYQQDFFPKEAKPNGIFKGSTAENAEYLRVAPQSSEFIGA
LCK, sequence (P06239 whole entry, species assumed): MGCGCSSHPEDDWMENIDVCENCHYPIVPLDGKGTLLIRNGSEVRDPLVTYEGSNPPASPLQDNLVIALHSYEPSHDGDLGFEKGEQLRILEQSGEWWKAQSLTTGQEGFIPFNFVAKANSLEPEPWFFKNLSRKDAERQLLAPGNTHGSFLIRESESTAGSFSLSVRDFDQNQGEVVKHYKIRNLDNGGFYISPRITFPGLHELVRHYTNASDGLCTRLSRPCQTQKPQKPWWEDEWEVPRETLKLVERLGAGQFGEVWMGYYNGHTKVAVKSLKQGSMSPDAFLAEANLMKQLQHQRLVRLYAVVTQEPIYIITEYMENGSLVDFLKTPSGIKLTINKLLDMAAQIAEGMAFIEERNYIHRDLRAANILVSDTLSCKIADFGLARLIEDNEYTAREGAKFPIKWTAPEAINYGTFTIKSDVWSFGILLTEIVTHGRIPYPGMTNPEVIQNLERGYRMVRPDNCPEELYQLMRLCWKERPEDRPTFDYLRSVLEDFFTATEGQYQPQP
T1 sequence (Q06187 whole entry): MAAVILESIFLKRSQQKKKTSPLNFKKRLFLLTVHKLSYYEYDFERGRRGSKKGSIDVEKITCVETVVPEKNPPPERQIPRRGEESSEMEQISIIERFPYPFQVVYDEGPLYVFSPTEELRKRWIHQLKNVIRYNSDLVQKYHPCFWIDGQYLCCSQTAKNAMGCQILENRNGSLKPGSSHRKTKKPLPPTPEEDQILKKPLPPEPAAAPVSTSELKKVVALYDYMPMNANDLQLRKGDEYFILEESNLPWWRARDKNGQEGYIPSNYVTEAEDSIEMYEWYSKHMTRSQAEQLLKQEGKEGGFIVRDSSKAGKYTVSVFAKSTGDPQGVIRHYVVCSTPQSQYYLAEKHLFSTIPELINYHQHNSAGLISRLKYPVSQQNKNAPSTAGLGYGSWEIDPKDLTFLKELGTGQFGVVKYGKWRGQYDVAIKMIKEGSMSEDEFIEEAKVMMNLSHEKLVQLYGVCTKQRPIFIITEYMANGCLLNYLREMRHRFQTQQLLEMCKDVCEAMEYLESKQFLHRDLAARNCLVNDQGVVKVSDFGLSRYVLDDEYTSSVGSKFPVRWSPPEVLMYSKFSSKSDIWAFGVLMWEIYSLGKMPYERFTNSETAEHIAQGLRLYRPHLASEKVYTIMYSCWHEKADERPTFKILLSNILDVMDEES

For the compound `CN(C)C/C=C/C(=O)N1CC[C@@H](n2c(Cl)c(-c3ccc(Oc4ccccc4)cc3)c3c(N)ncnc32)C1` [Compound 14, (R,E)-1-(3-(4-amino-6-chloro-5-(4-phenoxyphenyl)-7H-pyrrolo[2,3-d]pyrimidin-7-yl)pyrrolidin-1-yl)-4-(dimethylamino)but-2-en-1-one], the IC50 against EGFR is 1000 to 10000 nM; at BTK, under 100 nM; against LCK it was under 100 nM.

Regarding `Cc1c(-c2ccc(Oc3ccccc3)cc2)c2c(N)ncnc2n1[C@@H]1CCN(C(=O)/C=C/CN(C)C)C1` [Compound 15, (R,E)-1-(3-(4-amino-6-methyl-5-(4-phenoxyphenyl)-7H-pyrrolo[2,3-d]pyrimidin-7-yl)pyrrolidin-1-yl)-4-(dimethylamino)but-2-en-1-one], the values for the IC50 on EGFR, at BTK and against LCK were 1000 to 10000 nM, under 100 nM and under 100 nM, respectively.

Take `CN(C(=O)/C=C/CN(C)C1CC1)c1cccc(-n2c(Cl)c(-c3ccc(Cl)cc3)c3c(N)ncnc32)c1` [Compound 23, (E)-N-(3-(4-amino-6-chloro-5-(4-chlorophenyl)-7H-pyrrolo[2,3-d]pyrimidin-7-yl)phenyl)-4-(cyclopropyl(methyl)amino)-N-methylbut-2-enamide]: the half-inhibitory concentration (IC50) on EGFR is 1000 to 10000 nM; on BTK it was under 100 nM; on LCK, 1000 to 10000 nM.

Consider `COc1cc(-c2c(Cl)n(-c3cccc(N(C)C(=O)/C=C/CN(C)C4CC4)c3)c3ncnc(N)c23)ccc1C` [Compound 36, (E)-N-(3-(4-amino-6-chloro-5-(3-methoxy-4-methylphenyl)-7H-pyrrolo[2,3-d]pyrimidin-7-yl)phenyl)-4-(cyclopropyl(methyl)amino)-N-methylbut-2-enamide], for which the values for the IC50 against EGFR, on BTK and at LCK were 1000 to 10000 nM, under 100 nM and 1000 to 10000 nM, respectively.

On to `C=CC(=O)N1CC[C@@H](n2c(Cl)c(-c3ccc(Cl)cc3)c3c(N)ncnc32)C1` [Compound 39, (R)-1-(3-(4-amino-6-chloro-5-(4-chlorophenyl)-7H-pyrrolo[2,3-d]pyrimidin-7-yl)pyrrolidin-1-yl)prop-2-en-1-one], for which the results for the IC50 against EGFR, on BTK and at LCK were under 100 nM, under 100 nM and 100 to 1000 nM, respectively.

For the compound `CN(C)C/C=C/C(=O)N1CC[C@@H](n2c(Cl)c(-c3ccc(Cl)cc3)c3c(N)ncnc32)C1` [Compound 40, (R,E)-1-(3-(4-amino-6-chloro-5-(4-chlorophenyl)-7H-pyrrolo[2,3-d]pyrimidin-7-yl)pyrrolidin-1-yl)-4-(dimethylamino)but-2-en-1-one], the concentration for half-maximal inhibition (IC50) was 100 to 1000 nM at EGFR, under 100 nM on BTK and 100 to 1000 nM against LCK.

Regarding `C=CC(=O)N1CC[C@@H](n2c(F)c(-c3ccc(Cl)cc3)c3c(N)ncnc32)C1` [Compound 42, (R)-1-(3-(4-amino-5-(4-chlorophenyl)-6-fluoro-7H-pyrrolo[2,3-d]pyrimidin-7-yl)pyrrolidin-1-yl)prop-2-en-1-one], the figures for the IC50 against EGFR, on BTK and on LCK were under 100 nM, under 100 nM and 100 to 1000 nM, respectively.

As for `C=CC(=O)N1CC[C@@H](n2c(C)c(-c3ccc(Cl)cc3)c3c(N)ncnc32)C1` [Compound 44, (R)-1-(3-(4-amino-5-(4-chlorophenyl)-6-methyl-7H-pyrrolo[2,3-d]pyrimidin-7-yl)pyrrolidin-1-yl)prop-2-en-1-one], the values for the concentration for half-maximal inhibition (IC50) at EGFR, on BTK and on LCK were under 100 nM, under 100 nM and 100 to 1000 nM, respectively.

Consider `C=CC(=O)N1CC[C@@H](n2c(OC)c(-c3ccc(Cl)cc3)c3c(N)ncnc32)C1` [Compound 46, (R)-1-(3-(4-amino-5-(4-chlorophenyl)-6-methoxy-7H-pyrrolo[2,3-d]pyrimidin-7-yl)pyrrolidin-1-yl)prop-2-en-1-one], for which the IC50 against EGFR is under 100 nM; at BTK, under 100 nM; on LCK, 100 to 1000 nM.

The values are drawn from US9540385B2, “Pyrrolopyrimidine compounds as kinase inhibitors” (Pharmacyclics LLC, priority 2012, dated 2017).
